The Ki is the equilibrium dissociation constant of an inhibitor or competing ligand from its target.

In experiment [1] the target is T1, Cathepsin B (Homo sapiens, UniProt P07858). The experiment can be described thus: Inhibitory activity was measured against Cathepsin B.
Experiment [2] concerns the target T2, Cathepsin S (Homo sapiens, UniProt P25774). The experiment can be described thus: Inhibitory activity was measured against Cathepsin S.
Target sequence in this assay (P25774 whole entry): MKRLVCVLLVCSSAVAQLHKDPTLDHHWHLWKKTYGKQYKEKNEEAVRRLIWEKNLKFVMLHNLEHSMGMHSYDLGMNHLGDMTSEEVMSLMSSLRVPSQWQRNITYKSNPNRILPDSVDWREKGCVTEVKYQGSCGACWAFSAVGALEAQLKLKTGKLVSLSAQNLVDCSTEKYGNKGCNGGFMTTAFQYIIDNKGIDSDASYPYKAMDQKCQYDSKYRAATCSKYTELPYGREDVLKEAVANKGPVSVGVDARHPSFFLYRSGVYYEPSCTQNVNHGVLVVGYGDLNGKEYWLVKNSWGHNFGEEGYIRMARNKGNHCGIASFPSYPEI
Experiment [3] addresses T2, Cathepsin S. The experiment in a line: Selectivity ratio between Cathepsin S and Cathepsin K.
Target sequence in this assay (P25774 115-331 limits assumed): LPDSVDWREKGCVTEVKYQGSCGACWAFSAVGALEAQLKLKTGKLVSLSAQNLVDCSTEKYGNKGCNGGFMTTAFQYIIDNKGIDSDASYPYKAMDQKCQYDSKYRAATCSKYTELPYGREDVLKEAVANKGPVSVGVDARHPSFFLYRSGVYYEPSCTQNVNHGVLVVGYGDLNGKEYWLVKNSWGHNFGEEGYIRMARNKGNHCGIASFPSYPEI
Experiment [4] has as its target T1, Cathepsin B. The experiment can be described thus: Selectivity ratio between Cathepsin B and Cathepsin K.
Experiment [5] addresses T3, Procathepsin L (Homo sapiens, UniProt P07711). The experiment can be described thus: Inhibitory activity was measured against Cathepsin L.
Target sequence in this assay (P07711 whole entry): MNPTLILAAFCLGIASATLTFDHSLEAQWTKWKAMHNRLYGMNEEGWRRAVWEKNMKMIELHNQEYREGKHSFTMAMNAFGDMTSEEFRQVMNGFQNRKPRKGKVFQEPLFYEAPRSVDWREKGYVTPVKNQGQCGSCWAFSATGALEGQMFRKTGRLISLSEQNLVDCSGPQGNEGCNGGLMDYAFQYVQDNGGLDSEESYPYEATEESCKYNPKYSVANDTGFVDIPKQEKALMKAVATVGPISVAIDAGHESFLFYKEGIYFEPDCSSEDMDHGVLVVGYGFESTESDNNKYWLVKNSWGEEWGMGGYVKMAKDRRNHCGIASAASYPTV
The target of experiment [6] is T3, Procathepsin L. The experiment can be described thus: Selectivity ratio between Cathepsin L and Cathepsin K.
Target sequence in this assay (P07711 114-333 limits assumed): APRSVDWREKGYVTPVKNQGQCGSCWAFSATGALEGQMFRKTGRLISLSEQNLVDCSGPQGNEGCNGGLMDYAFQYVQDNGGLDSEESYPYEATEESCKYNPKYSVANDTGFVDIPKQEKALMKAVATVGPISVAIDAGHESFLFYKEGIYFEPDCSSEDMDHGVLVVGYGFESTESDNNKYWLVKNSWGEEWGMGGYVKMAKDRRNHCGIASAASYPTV
Experiment [7] deals with T4, Cathepsin K (Homo sapiens, UniProt P43235).
T4 sequence (P43235 whole entry): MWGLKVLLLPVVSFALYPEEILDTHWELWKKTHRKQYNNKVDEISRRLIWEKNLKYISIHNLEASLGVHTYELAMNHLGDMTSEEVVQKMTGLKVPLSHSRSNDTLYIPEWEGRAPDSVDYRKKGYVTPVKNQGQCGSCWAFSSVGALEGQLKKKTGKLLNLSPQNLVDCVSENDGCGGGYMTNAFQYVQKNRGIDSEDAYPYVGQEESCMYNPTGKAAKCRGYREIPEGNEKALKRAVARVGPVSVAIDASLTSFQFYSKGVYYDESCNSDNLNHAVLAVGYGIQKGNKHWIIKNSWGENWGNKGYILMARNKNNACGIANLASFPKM
The experiment can be described thus: Inhibitory activity was measured against Cathepsin K.

For the compound `CC(=O)O[C@@H]1NC(=O)[C@H]1NC(=O)[C@@H]1CCC[C@@H]1NC(=O)OCc1ccccc1`, the Ki in experiment [1] is 52 µM; in experiment [2], 11 µM; in experiment [5], greater than 150 µM; in experiment [7], 2.1 µM. The Ratio in experiment [3] is 5; in experiment [4], 24; in experiment [6], greater than 70.

With `CC(=O)O[C@@H]1NC(=O)[C@H]1NC(=O)C1(NC(=O)OCc2ccccc2)CCCCC1`, the Ki in experiment [1] was found to be 4.3 µM; in experiment [2], 0.95 µM; in experiment [5], 6.8 µM; in experiment [7], 0.0057 µM. Also, the figures for the Ratio in experiment [3], in experiment [4] and in experiment [6] were 160, 750 and 1190, respectively.

For the compound `CC(=O)O[C@@H]1NC(=O)[C@H]1NC(=O)C1(NC(=O)OCc2ccccc2)CCCC1`, the Ki is 7.7 µM in experiment [1], 28 µM in experiment [2], 140 µM in experiment [5] and 0.16 µM in experiment [7]. Further, the Ratio in experiment [3] is 175; in experiment [4] it was 48; in experiment [6], 870.

Consider `CC(=O)O[C@@H]1NC(=O)[C@H]1NC(=O)[C@@H]1CCCC[C@@H]1NC(=O)OCc1ccccc1`, for which the inhibition constant Ki amounted to 1.6 µM in experiment [1], 0.13 µM in experiment [2], 3.7 µM in experiment [5] and 0.0088 µM in experiment [7]. The values for the Ratio in experiment [3], in experiment [4] and in experiment [6] were 15, 180 and 420, respectively.

Regarding `O=C(NC1(C(=O)N[C@@H]2C(=O)N[C@@H]2Oc2ccccc2)CCCCC1)OCc1ccccc1`, the Ki in experiment [1] is greater than 150 µM; in experiment [2], 53 µM; in experiment [5] it was 16 µM; in experiment [7], 3.6 µM. The Ratio in experiment [3] was 15; in experiment [4] it was greater than 40; in experiment [6], 4.

As to `CC(=O)O[C@@H]1NC(=O)[C@H]1NC(=O)C1CCCN1C(=O)OCc1ccccc1` (stereo partly drawn), the Ki in experiment [1] was 120 µM; in experiment [2], greater than 150 µM; in experiment [5], greater than 150 µM; in experiment [7], 0.95 µM. Further, the Ratio in experiment [3] was greater than 160; in experiment [4], 120; in experiment [6] it was greater than 160.

Regarding `O=C(NC1(C(=O)N[C@@H]2C(=O)N[C@H]2Oc2ccccc2)CCCCC1)OCc1ccccc1`, the Ki amounted to 140 µM in experiment [1], 33 µM in experiment [2], 3.4 µM in experiment [5] and 0.38 µM in experiment [7]. Besides, the values for the Ratio in experiment [3], in experiment [4] and in experiment [6] were 87, 368 and 9, respectively.

`CC(=O)O[C@@H]1NC(=O)[C@H]1NC(=O)[C@H](CC(C)C)NC(=O)OCc1ccccc1`: the inhibition constant (Ki) was determined as 2.1 µM in experiment [1], 0.0092 µM in experiment [2], 0.088 µM in experiment [5] and 0.0022 µM in experiment [7]. In addition, the Ratio in experiment [3] was determined as 4; in experiment [4], 950; in experiment [6], 40.

`CC(=O)O[C@@H]1NC(=O)[C@H]1NC(=O)C1CCCCN1C(=O)OCc1ccccc1` (stereo partly drawn): the Ki in experiment [1] was 65 µM; in experiment [2], 20 µM; in experiment [5], greater than 150 µM; in experiment [7], 0.2 µM. The Ratio in experiment [3] was 100; in experiment [4], 320; in experiment [6], greater than 750.

These data come from ChEMBL document CHEMBL1136543, “3,4-disubstituted azetidinones as selective inhibitors of the cysteine protease cathepsin K. Exploring P2 elements for selectivity” (Bioorg Med Chem Lett, 2003).
